# In patent publication US20200171034A1, “Methods Of Treating Follicular Lymphoma” (Janssen Biotech, Inc., priority 2018, published 2020):
# Test system: relapsed/refractory (R/R) follicular lymphoma (FL)
# Test: DAWN study (NCT01779791): phase 2, single-arm ibrutinib monotherapy
# Type: in vivo, humans
# Conditions: patients with R/R FL, ibrutinib 560 mg once daily
# Text: Detailed methodology for the DAWN trial is published in Gopal A K, et al. J Clin Oncol. 2018; 36:2405-2412. […] The primary end point was overall response rate (ORR=complete response [CR]+partial response [PR]), assessed by an independent review committee using the International Working Group Revised Response Criteria for Malignant Lymphoma.
smiles,measurement,setting,value
"C=CC(=O)N1CCC[C@@H](n2nc(-c3ccc(Oc4ccccc4)cc3)c3c(N)ncnc32)C1 [ibrutinib, Ibrutinib]",duration of response (median) in responders,,19.4 months
same,overall response rate (ORR = complete response + partial response),"independent review committee, 95% CI 13.7-29.7",20.9%
